{"source": "paper PMC7337102", "about": "(ACS infectious diseases, 2019)", "biological_target": "Eis_wt (Mycobacterium tuberculosis, UniProt P9WFK7)", "sequence (P9WFK7 whole entry)": "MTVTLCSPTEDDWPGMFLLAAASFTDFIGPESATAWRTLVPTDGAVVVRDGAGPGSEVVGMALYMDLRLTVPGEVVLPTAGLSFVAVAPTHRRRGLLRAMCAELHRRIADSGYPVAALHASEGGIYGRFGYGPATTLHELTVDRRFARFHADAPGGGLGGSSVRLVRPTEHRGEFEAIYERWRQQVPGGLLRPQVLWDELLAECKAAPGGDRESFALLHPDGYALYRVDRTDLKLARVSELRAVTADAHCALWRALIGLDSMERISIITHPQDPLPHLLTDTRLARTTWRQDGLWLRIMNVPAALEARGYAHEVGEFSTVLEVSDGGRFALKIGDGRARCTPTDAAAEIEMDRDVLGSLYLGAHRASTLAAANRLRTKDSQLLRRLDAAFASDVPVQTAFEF", "type": "biochemical", "details": "KAN as substrate"}
{"smiles": "NC[C@H]1O[C@H](O[C@H]2[C@H](O)[C@@H](O[C@H]3O[C@H](CO)[C@@H](O)[C@H](N)[C@H]3O)[C@H](N)C[C@@H]2N)[C@H](O)[C@@H](O)[C@@H]1O", "note": "[KAN, kanamycin]", "values": [{"measurement": "kcat", "value": "0.238 ± 0.0317", "unit": "s⁻¹"}, {"measurement": "Km", "setting": "average for three sets of assays", "value": "551 ± 134", "unit": "µM"}]}
